Data: patent US12559492B2, “BRAF degraders” (C4 Therapeutics, Inc., priority 2020, dated 2026)

Biological target: BRAF^V600E protein (Homo sapiens, UniProt P15056, V600E)
Test: HiBiT cellular BRAF V600E degradation assay
Type: cell-based
Conditions: 24 h incubation; for DC50: A375.10 cells (HiBiT tag knocked in at N-terminal of BRAF V600E), concentration at which 50% of total cellular BRAF V600E is degraded; for Emax: A375.10 cells, Emax = amount of residual protein remaining in the cell after compound treatment, read-out: HiBit 24 h Emax

Chain of BRAF^V600E protein (P15056 whole entry V600E): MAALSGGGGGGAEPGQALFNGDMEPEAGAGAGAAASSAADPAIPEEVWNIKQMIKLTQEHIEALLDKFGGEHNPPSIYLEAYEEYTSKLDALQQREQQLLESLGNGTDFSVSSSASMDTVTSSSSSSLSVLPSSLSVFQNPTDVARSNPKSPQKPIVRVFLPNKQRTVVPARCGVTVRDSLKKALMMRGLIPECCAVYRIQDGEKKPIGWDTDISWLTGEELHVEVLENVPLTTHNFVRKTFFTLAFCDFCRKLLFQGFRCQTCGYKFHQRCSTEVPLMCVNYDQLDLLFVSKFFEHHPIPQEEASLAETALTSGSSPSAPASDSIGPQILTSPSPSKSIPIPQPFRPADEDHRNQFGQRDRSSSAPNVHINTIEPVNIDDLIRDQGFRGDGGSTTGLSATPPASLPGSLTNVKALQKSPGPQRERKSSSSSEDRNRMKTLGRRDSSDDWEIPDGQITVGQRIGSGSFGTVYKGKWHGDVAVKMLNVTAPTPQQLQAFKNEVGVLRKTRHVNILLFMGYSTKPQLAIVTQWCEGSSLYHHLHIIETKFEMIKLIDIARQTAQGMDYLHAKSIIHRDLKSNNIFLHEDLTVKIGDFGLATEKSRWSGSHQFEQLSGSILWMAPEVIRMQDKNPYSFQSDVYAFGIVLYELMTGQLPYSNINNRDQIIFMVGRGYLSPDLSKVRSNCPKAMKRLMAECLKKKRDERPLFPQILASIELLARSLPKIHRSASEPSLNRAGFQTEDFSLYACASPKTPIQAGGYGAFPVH

With CCC(C)S(=O)(=O)Nc1ccc(F)c(C(=O)c2c[nH]c3ncc(-c4ccc(N5CCN(C(=O)CN6CCC(c7ccc(OC8CCC(=O)NC8=O)cc7)CC6)CC5)nc4)cc23)c1F (centres unmarked) [Example A28, N-[3-[5-[6-[4-[2-[4-[4-(2,6-Dioxopiperidin-3-yl)oxyphenyl]piperidin-1-yl]acetyl]piperazin-1-yl]pyridin-3-yl]-1H-pyrrolo[2,3-b]pyridine-3-carbonyl]-2,4-difluorophenyl]butane-2-sulfonamide] as the molecule, how does the DC50 read?
Its DC50 is 12 nM.

And the Emax?
Its Emax is 14%.

With CCC(C)S(=O)(=O)Nc1ccc(F)c(C(=O)c2c[nH]c3ncc(-c4ccc(N5CCN(C(=O)CN6CCC(c7ccc(NC8CCC(=O)NC8=O)cc7)CC6)CC5)nc4)cc23)c1F (centres unmarked) [Example A29, N-[3-[5-[6-[4-[2-[4-[4-[(2,6-Dioxopiperidin-3-yl)amino]phenyl]piperidin-1-yl]acetyl]piperazin-1-yl]pyridin-3-yl]-1H-pyrrolo[2,3-b]pyridine-3-carbonyl]-2,4-difluorophenyl]butane-2-sulfonamide] as the molecule, how does the DC50 read?
Its DC50 is 3.05 nM.

And the Emax?
Its Emax is 10.9%.

Which DC50 does the source give for CCN(C)S(=O)(=O)Nc1ccc(F)c(C(=O)c2c[nH]c3ncc(-c4ccc(OC5CCN(C(=O)CN6CCC(c7ccc(OC8CCC(=O)NC8=O)cc7)CC6)CC5)cc4)cc23)c1F (centres unmarked) [Example A30, 5-[4-[1-[2-[4-[4-(2,6-Dioxopiperidin-3-yl)oxyphenyl]piperidin-1-yl]acetyl]piperidin-4-yl]oxyphenyl]-3-[3-[[ethyl(methyl)sulfamoyl]amino]-2,6-difluorobenzoyl]-1H-pyrrolo[2,3-b]pyridine] here?
The DC50 was 53 nM.

What about the Emax of the same molecule?
Its Emax is 13%.

Which results are given for CCN(C)S(=O)(=O)Nc1ccc(F)c(C(=O)c2c[nH]c3ncc(-c4ccc(OC5CCN(C(=O)CN6CCC(c7ccc(NC8CCC(=O)NC8=O)cc7)CC6)CC5)cc4)cc23)c1F (centres unmarked) [Example A31, 5-[4-[1-[2-[4-[4-[(2,6-dioxopiperidin-3-yl)amino]phenyl]piperidin-1-yl]acetyl]piperidin-4-yl]oxyphenyl]-3-[3-[[ethyl(methyl)sulfamoyl]amino]-2,6-difluorobenzoyl]-1H-pyrrolo[2,3-b]pyridine]?
DC50: 15 nM; Emax: 12%

Which DC50 does the source give for O=C1CCC(Oc2ccc(C3CCN(CC(=O)N4CCN(c5ccc(-c6cnc7[nH]cc(C(=O)c8c(F)ccc(NS(=O)(=O)C9CCCCC9)c8F)c7c6)cn5)CC4)CC3)cc2)C(=O)N1 (centres unmarked) [Example A32, N-[3-[5-[6-[4-[2-[4-[4-(2,6-Dioxopiperidin-3-yl)oxyphenyl]piperidin-1-yl]acetyl]piperazin-1-yl]pyridin-3-yl]-1H-pyrrolo[2,3-b]pyridine-3-carbonyl]-2,4-difluorophenyl]cyclohexanesulfonamide] here?
The DC50 was 39 nM.

And the Emax?
The Emax was 15%.

Which DC50 does the source give for O=C1CCC(Nc2ccc(C3CCN(CC(=O)N4CCN(c5ccc(-c6cnc7[nH]cc(C(=O)c8c(F)ccc(NS(=O)(=O)C9CCCCC9)c8F)c7c6)cn5)CC4)CC3)cc2)C(=O)N1 (centres unmarked) [Example A33, N-[3-[5-[6-[4-[2-[4-[4-[(2,6-Dioxopiperidin-3-yl)amino]phenyl]piperidin-1-yl]acetyl]piperazin-1-yl]pyridin-3-yl]-1H-pyrrolo[2,3-b]pyridine-3-carbonyl]-2,4-difluorophenyl]cyclohexanesulfonamide] here?
Its DC50 is 34 nM.

And the Emax?
Its Emax is 13%.

What does the source list for CCN(C)S(=O)(=O)Nc1ccc(F)c(C(=O)c2c[nH]c3ncc(-c4cnc(N5CCC(NC(=O)N6CCC(c7ccc(NC8CCC(=O)NC8=O)cc7)CC6)CC5)nc4)cc23)c1F (centres unmarked) [Example A34, 4-[4-[(2,6-Dioxopiperidin-3-yl)amino]phenyl]-N-[1-[5-[3-[3-[[ethyl(methyl)sulfamoyl]amino]-2,6-difluorobenzoyl]-1H-pyrrolo[2,3-b]pyridin-5-yl]pyrimidin-2-yl]piperidin-4-yl]piperidine-1-carboxamide;formic acid]?
DC50: 79 nM; Emax: 25%

CCN(C)S(=O)(=O)Nc1ccc(F)c(C(=O)c2c[nH]c3ncc(-c4ccc(N5CCN(C(=O)CCN6CCC(c7ccc(OC8CCC(=O)NC8=O)cc7)CC6)CC5)nc4)cc23)c1F (centres unmarked) [Example A35, 5-[6-[4-[3-[4-[4-(2,6-Dioxopiperidin-3-yl)oxyphenyl]piperidin-1-yl]propanoyl]piperazin-1-yl]pyridin-3-yl]-3-[3-[[ethyl(methyl)sulfamoyl]amino]-2,6-difluorobenzoyl]-1H-pyrrolo[2,3-b]pyridine] was tested. Which DC50 did it give?
Its DC50 is 54 nM.

What about the Emax of the same molecule?
Its Emax is 21%.

With CCN(C)S(=O)(=O)Nc1ccc(F)c(C(=O)c2c[nH]c3ncc(-c4ccc(N5CCN(C(=O)CN6CCC(c7ccc(NC8CCC(=O)NC8=O)cc7)CC6)CC5)cc4)cc23)c1F (centres unmarked) [Example A36, 5-[4-[4-[2-[4-[4-[(2,6-Dioxopiperidin-3-yl)amino]phenyl]piperidin-1-yl]acetyl]piperazin-1-yl]phenyl]-3-[3-[[ethyl(methyl)sulfamoyl]amino]-2,6-difluorobenzoyl]-1H-pyrrolo[2,3-b]pyridine] as the molecule, how does the DC50 read?
The DC50 was 3 nM.

And the Emax?
Its Emax is 10%.

Which DC50 does the source give for CCN(C)S(=O)(=O)Nc1ccc(F)c(C(=O)c2c[nH]c3ncc(-c4ccc(N5CCN(C(=O)CN6Cc7ccc(NC8CCC(=O)NC8=O)cc7C6)CC5)nc4)cc23)c1F (centres unmarked) [Example A37, 5-[6-[4-[2-[5-[(2,6-Dioxopiperidin-3-yl)amino]-1,3-dihydroisoindol-2-yl]acetyl]piperazin-1-yl]pyridin-3-yl]-3-[3-[[ethyl(methyl)sulfamoyl]amino]-2,6-difluorobenzoyl]-1H-pyrrolo[2,3-b]pyridine] here?
Its DC50 is 14.6 nM.

What about the Emax of the same molecule?
Its Emax is 20.6%.

Which DC50 does the source give for CCN(C)S(=O)(=O)Nc1ccc(F)c(C(=O)c2c[nH]c3ncc(-c4ccc(CN5CCN(C(=O)CN6Cc7ccc(NC8CCC(=O)NC8=O)cc7C6)CC5)nc4)cc23)c1F (centres unmarked) [Example A38, 5-[6-[[4-[2-[5-[(2,6-Dioxopiperidin-3-yl)amino]-1,3-dihydroisoindol-2-yl]acetyl]piperazin-1-yl]methyl]pyridin-3-yl]-3-[3-[[ethyl(methyl)sulfamoyl]amino]-2,6-difluorobenzoyl]-1H-pyrrolo[2,3-b]pyridine] here?
Its DC50 is 47 nM.

What about the Emax of the same molecule?
The Emax was 20%.

Which DC50 does the source give for CCN(C)S(=O)(=O)Nc1ccc(F)c(C(=O)c2c[nH]c3ncc(-c4ccc(N5CCN(C(=O)CN(C)C(=O)Cc6ccc(NC7CCC(=O)NC7=O)cc6)CC5)nc4)cc23)c1F (centres unmarked) [Example A39, 2-[4-[(2,6-dioxopiperidin-3-yl)amino]phenyl]-N-[2-[4-[5-[3-[3-[[ethyl(methyl)sulfamoyl]amino]-2,6-difluorobenzoyl]-1H-pyrrolo[2,3-b]pyridin-5-yl]pyridin-2-yl]piperazin-1-yl]-2-oxoethyl]-N-methylacetamide] here?
The DC50 was 35 nM.

And the Emax?
The Emax was 18%.

Which DC50 does the source give for CCN(C)S(=O)(=O)Nc1ccc(F)c(C(=O)c2c[nH]c3ncc(-c4cnc(N5CCC(NC(=O)N6CCC(c7ccc(NC8CCC(=O)NC8=O)cn7)CC6)CC5)nc4)cc23)c1F (centres unmarked) [Example A40, 4-[5-[(2,6-Dioxopiperidin-3-yl)amino]pyridin-2-yl]-N-[1-[5-[3-[3-[[ethyl(methyl)sulfamoyl]amino]-2,6-difluorobenzoyl]-1H-pyrrolo[2,3-b]pyridin-5-yl]pyrimidin-2-yl]piperidin-4-yl]piperidine-1-carboxamide;formic acid] here?
Its DC50 is 8 nM.

And the Emax?
Its Emax is 17%.
